{
  "source": "patent US9636323B2",
  "about": "“Method of treating cancer that overexpresses TopBP1” (Baylor College of Medicine, priority 2014, dated 2017)",
  "key": {"BT549 xenografts": {"tested_on": "BT549 xenografts", "assay": "BT549 xenograft formation", "assay_type": "in vivo, nude mice", "protocol": "Twenty nude mice were injected s.c. with BT549 cells. […] Six out of eight DMSO-treated mice developed xenografts later."}, "[1]": {"tested_on": "U-87 MG glioblastoma multiforme cells", "assay": "Caspase 3/7 activation assay, U-87 MG", "assay_type": "cell-based", "details": "2.5 or 5 μM, 16 hours", "protocol": "(§1) The apoptosis was measured by Caspase-Glo® 3/7 assay (Promega) following the manufacturer's protocol. The cells were plated in 6-well tissue culture dish (10^4 cells/well) (BD Falcon) in respective media. […] The blank reactions were prepared per direction. Equal volume of Caspase-Glo® 3/7 reagents were applied to each well. A luminometer (Sirius) was used to quantitate luminescence."}, "BT549": {"tested_on": "BT549", "details": "NCI-DTP database; cited from earlier work"}, "MDA-MB231 cells": {"tested_on": "MDA-MB231 cells", "assay": "MTS assay, MDA-MB231", "assay_type": "cell-based, human", "protocol": "(§2) Then 50 μl of MTS reagent (CellTiter 96® AQueous One Solution Cell Proliferation Assay, Promega) was added to each well, covered from light and incubated for 1 h at 37.0 incubator to develop purple color. The samples were measured at 490 nm in a plate reader (BioTek Synergy HT) against a blank 48-well plate. Each assay was done in triplicate."}, "NCI-60 cancer cell lines": {"tested_on": "NCI-60 cancer cell lines", "details": "NCI-DTP data, cited from earlier work"}, "MDA-MB468 cells [2]": {"tested_on": "MDA-MB468 cells", "assay": "Mammosphere formation", "assay_type": "cell-based, human", "details": "2.5 μM, 11 days", "protocol": "For in vitro mammosphere culture, ˜5000 MDA-MB468 cells/well were seeded into a Ultra-low Adherent 6-well plate (Stem Cell Technologies) with 2 ml/well fresh complete MammoCult™ medium (Stem Cell Technologies) containing the MammoCult® Basal Medium, MammoCult® Proliferation Supplement, 4 μg/ml Heparin (Stem Cell Technologies) and fresh 0.48 μg/ml Hydrocortisone. Cells were incubated in a 5% CO2 incubator at 37° C. for 7-11 days. […] Each treatment was done in triplicate."}, "NCI-H522": {"tested_on": "NCI-H522", "details": "NCI-DTP database; cited from earlier work"}, "MDA-MB468 cells [3]": {"tested_on": "MDA-MB468 cells", "assay": "MTS assay, MDA-MB468", "assay_type": "cell-based, human", "details": "5 h", "protocol": "as §2"}, "BT549 cells": {"tested_on": "BT549 cells", "assay": "Trypan blue exclusion viability assay, BT549", "assay_type": "cell-based, human", "protocol": "(§3) To prepare TopBP1 knockdown stable cell line, MDA-MB468 cells were infected with lentivirus expressing TopBP1 shRNA (Liu et al. 2011) as well as scramble shRNA, separately. The infected cells were grown for 48 h followed by selection with puromycin (2 μg/ml). After selection, the knockdown was confirmed by Western blotting before further experiments. Two different pLKO-shTopBP1 (#1 and #2) constructs (Open Biosystems, RHS4533-NM_007027) were used to deplete TopBP1 in MDA-MB468 cells. Additional two pSuper-shTopBP1 constructs (Liu et al. 2004) were used to knock down TopBP1 in HEK293 cells. Two pSuper-shE2F1 constructs were used to deplete E2F1: shE2F1#1 (described previously (Liu et al. 2004)), and shE2F1#2 (target sequence 5′-[…]-3′). The target sequence for pSuperior-shE2F1 is the same as pSuper-shE2F1#1. To deplete p63, shp63alpha pLKO.1-puro (from Addgene, 19120) was used. TP73 MISSION shRNA (shp73 pLKO.1-puro) was purchased from Sigma (TRCN00002722587)."}, "[4]": {"tested_on": "SKOV-3 ovarian cancer cells", "assay": "MTS assay, SKOV-3", "assay_type": "cell-based, human", "protocol": "as §2"}, "MDA-MB468": {"tested_on": "MDA-MB468", "assay": "DNA damage signals (pS15-p53, γ-H2AX) in MDA-MB468", "assay_type": "cell-based, human", "details": "up to 10 μM", "protocol": "MDA-MB468 cells were lysed with TNN buffer (Liu et al. 2003). An aliquot of cell lysates was lysed with SDS lysis buffer and the rest of cell lysates were incubated with appropriate antibodies or beads at 4° C. for 3-12 h. Anti-FLAG beads (Sigma) were washed three times with TNN buffer. Immunoprecipitates were fractionated by SDS-PAGE and electro-transferred to Immobilon-P membrane (Millipore). Equal amount of protein loading was validated with Ponceau-S staining. The specific signals were detected by incubating with appropriate antibody. All primary antibodies were used at 1:1000 dilution and horseradish peroxidase (HRP)-conjugated secondary antibodies were used at 1:5000 dilution for immunoblotting. E2F1 (C-20 and KH-95), p53 (FL393), p63 (4A4 and H-129), p73 (H-79), p21 (C-19), Bax (N-20), GST (B-14), c-Myc (A14), Miz1 (H-190), Chk1 (G4), Actin (C-2) and GAPDH (6C5) antibodies were purchased from Santa Cruz. TopBP1 (mouse monoclonal) and Aid antibodies were purchased from BD Transduction Laboratories. TopBP1 (BL893, Rabbit polyclonal) antibody was purchased from Bethyl. Mouse monoclonal anti-phospho-γH2AX was purchased from Millipore. Phospho-Chk1 (Ser345) antibody was purchased from Cell signaling. FLAG (F7425) antibody was purchased from Sigma. Mouse monoclonal anti-p73 (IMG-246) was purchased from IMGENEX."}, "Jurkat-T cells": {"tested_on": "Jurkat-T cells", "assay": "Caspase 3/7 activation assay, Jurkat-T", "assay_type": "cell-based", "details": "2.5 μM, 7 hours", "protocol": "as §1"}, "[5]": {"tested_on": "primary leukemia cells from a patient with T cell acute lymphoblastic leukemia", "assay": "Caspase 3/7 activation assay, primary leukemia cells", "assay_type": "cell-based", "details": "2.5 μM, 7 hours", "protocol": "as §1"}, "MCF10A cells": {"tested_on": "MCF10A cells", "assay": "MTS assay, MCF10A", "assay_type": "cell-based, human", "details": "co-treated with doxorubicin, Calcein AM 2.5 μM, 5 h", "protocol": "as §2"}, "[6]": {"tested_on": "RPMI 8226 myeloma cell line", "assay": "MTS assay, RPMI 8226", "assay_type": "cell-based, human", "details": "Calcein AM 2.5 μM, 12 h, mutp53(E285K)", "protocol": "as §2"}, "HEK293 cells": {"tested_on": "HEK293 cells", "assay": "Caspase-Glo 3/7 activity assay, HEK293", "assay_type": "cell-based, human", "details": "2.5 μM overnight", "protocol": "as §1, §3"}},
  "note": "“And” between values parts separate entries of the source, which are not always exact repeats. Equal entries are not always repeated. Where two headings read alike, the source gives them in different places.",
  "data": [
    {"molecule": "CC(=O)OCOC(=O)CN(CC(=O)OCOC(C)=O)Cc1cc2c(cc1OC(C)=O)Oc1cc(OC(C)=O)c(CN(CC(=O)OCOC(C)=O)CC(=O)OCOC(C)=O)cc1C21OC(=O)c2ccccc21", "note": "[Calcein AM, Calcein AM (acetoxymethyl ester)]", "values": [
      {"measurement": "mice that developed tumors", "setting": "BT549 xenografts; 20 mg/kg i.p. every three days for three doses", "result": "none of the eight"},
      {"measurement": "mice that developed tumors", "setting": "BT549 xenografts; 40 mg/kg i.p. every three days for three doses", "result": "none of the four"},
      {"measurement": "apoptosis (caspase 3/7 activation)", "setting": "[1]", "result": "induced apoptosis"},
      {"measurement": "GI50", "setting": "BT549", "result": "< 400 nM and 270 nM"},
      {"measurement": "anti-apoptotic activity of overexpressed TopBP1 (doxorubicin resistance)", "setting": "MDA-MB231 cells; AdTopBP1-infected cells, doxorubicin, Calcein AM 2.5 μM", "result": "blocked"},
      {"measurement": "proliferation (MTS)", "setting": "MDA-MB231 cells; increasing concentrations, 5 h, versus MCF10A", "result": "preferentially inhibited the proliferation"},
      {"measurement": "GI50", "setting": "NCI-60 cancer cell lines; read-out: average GI50 over all 60 cell lines", "result": 662, "unit": "nM"},
      {"measurement": "GI50", "setting": "NCI-60 cancer cell lines; read-out: highest GI50 of the 60 cell lines", "result": 11000, "unit": "nM"},
      {"measurement": "GI50", "setting": "NCI-60 cancer cell lines; read-out: lowest GI50 of the 60 cell lines", "result": 10, "unit": "nM"},
      {"measurement": "mammosphere formation", "setting": "MDA-MB468 cells [2]", "result": "blocked"},
      {"measurement": "GI50", "setting": "NCI-H522", "result": "< 1000", "unit": "nM"},
      {"measurement": "doxorubicin sensitivity (MTS)", "setting": "MDA-MB468 cells [3]; TopBP1-depleted cells, 2.5 μM", "result": "failed to cast the same effect"},
      {"measurement": "doxorubicin sensitivity (MTS)", "setting": "MDA-MB468 cells [3]; co-treated with doxorubicin, Calcein AM 2.5 μM", "result": "greatly enhanced the doxorubicin sensitivity"},
      {"measurement": "proliferation (MTS)", "setting": "MDA-MB468 cells [3]; increasing concentrations, versus MCF10A", "result": "preferentially inhibited the proliferation"},
      {"measurement": "doxorubicin sensitivity (MTS)", "setting": "MDA-MB468 cells [3]; shScr control cells, 2.5 μM", "result": "sensitized"},
      {"measurement": "Calcein AM response, viability assay", "setting": "BT549 cells; E2F1 depleted by two shRNA constructs, 2.5 μM, 20 h", "result": "attenuated"},
      {"measurement": "living cells compared with scrambled shRNA", "setting": "BT549 cells; p63- and p73-depleted cells, 2 μM, 15 h", "result": "more living cells"},
      {"measurement": "proliferation (MTS)", "setting": "[4]; Calcein AM 5 μM in combination with cisplatin 20 μM, 20 h", "result": "inhibited the proliferation"},
      {"measurement": "proliferation (MTS)", "setting": "[4]; Calcein AM alone, overnight", "result": "inhibited the proliferation"},
      {"measurement": "DNA damage (pS15-p53 or γ-H2AX signal)", "setting": "MDA-MB468", "result": "did not see evidence of DNA damage"},
      {"measurement": "cell killing (caspase 3/7 activation)", "setting": "Jurkat-T cells", "result": "active in killing"},
      {"measurement": "cell killing (caspase 3/7 activation)", "setting": "[5]", "result": "active in killing"},
      {"measurement": "doxorubicin sensitivity (MTS)", "setting": "MCF10A cells", "result": "not"},
      {"measurement": "doxorubicin sensitivity (MTS)", "setting": "[6]", "result": "sensitized cells to doxorubicin"},
      {"measurement": "apoptosis (caspase 3/7 activity)", "setting": "HEK293 cells", "result": "induced apoptosis"},
      {"measurement": "apoptosis (caspase 3/7 activity)", "setting": "HEK293 cells; TopBP1-depleted HEK293 cells", "result": "could not induce more apoptosis"}
    ]}
  ]
}
